Measured values: patent publication US11766430B2, “Methods of using a phenoxypropylamine compound to treat pain” (Minerva Neurosciences, Inc., priority 2018, dated 2023)
“Also recorded” adds a separate entry of the source.

How the values were obtained:
[1] = tested on: paclitaxel-induced peripheral neuropathic pain in rats; assay: Reversal of paclitaxel-induced peripheral neuropathic pain, paw withdrawal threshold, chronic administration (Example 6); type: in vivo, Male Sprague Dawley rats; settings: for PWT compared to vehicle (in words): days 14, 21 and 28; for PWT after cessation of treatment (in words): 100 mg/kg orally, day 35, one week after cessation of treatment
Description: (§1) Male Sprague Dawley rats from Envigo were used in the study. Animals were received at approximately 250 g and housed 3 per cage upon arrival. All rats were examined, handled, and weighed prior to initiation of the study to assure adequate health and suitability. During the course of the study, 12/12 light/dark cycles was maintained. The room temperature was be maintained between 20 and 23° C. with a relative humidity maintained around 50%. Chow and water was provided ad libitum for the duration of the study. All testing was performed during the animal's light cycle phase.
(§2) Paclitaxel (2 mg/kg) was purchased from Biolyse Pharma and injected i.p. on four alternate days (day 1, 3, 5 and 7) for a total of 4 injections at a dose volume of 1 mL/kg.
(§3) Gabapentin (100 mg/kg) was dissolved in saline and administered orally at a dose volume of 1 mL/kg. For prevention study, gabapentin was administered on day 14, sixty minutes prior to test. For reversal study, gabapentin was administered once daily for 2 weeks. On test days it was administered 60 minutes prior to test.
Reversal study: MIN-117 (1, 3 and 10 mg/kg) was formulated in 0.5% (w/v) hydroxypropylmethyl cellulose (HPMC) 8°-120 centipoises in water and administered i.p once daily for 2 weeks at a dose volume of 1 mL/kg. On test days, MIN-117 was administered 2 hours prior to test.
(§4) Rats were administered paclitaxel (2 mg/kg) on four alternate days (days 1, 3, 5 and 7). Baseline and post treatment Paw Withdrawal Threshold (PWT) were evaluated using von Frey filaments (Semmes-Weinstein filaments, Stoelting, Wood Dale, Ill., USA) of varying stiffness (0.4, 0.7, 1.2, 2.0, 3.6, 5.5, 8.5, 10, 15, 26 g). Animals were placed on a perforated metallic platform and allowed to acclimate to their surroundings for a minimum of 15 minutes before each test session. Each filament was presented perpendicular to the plantar surface with sufficient force to cause slight buckling against the paw, and then held until a positive response is noted (paw sharply withdrawn). As described by Chaplan et al. 1994, once the threshold was crossed, the 2 responses straddling the threshold are retrospectively designated as the first 2 responses. Four additional responses were measured to stimuli varied sequentially up or down based on the animal's response. The 6 responses in the immediate vicinity of the threshold were used to calculate the 50% g threshold: 50% g threshold=(10^[Xf+k*d])/10000 Xf is the final filament used (in log units). The parameter k is from the Appendix 1 in Chaplan and was determined by the pattern of the von Frey responses (e.g. OXOXOX where ‘O’ indicates no response and ‘X’ denotes a withdrawal). The parameter d is the difference between stimuli which Chaplan used a constant d=0.224. To accommodate for the use of the 10 g and 26 g filaments, the exact difference between stimuli were used.
(§5) PWT was measured according to the Schematics in FIG. 9 (prevention) and FIG. 10 (reversal study).
Data was analyzed by analysis of variance (ANOVA) followed by post-hoc comparisons where appropriate. An effect will be considered significant if p<0.05. Data was represented as the mean and standard error to the mean (s.e.m). Statistical outliers that fell above or below 2 standard deviations of the mean were identified but not removed from the final analysis.

[2] = Body weight during the chemotherapy induced neuropathic pain study (Example 5); type: in vivo, Male Sprague Dawley rats; settings: paclitaxel days 1, 3, 5, 7; test compound on day 14; repeated measures ANOVA
Description: as §1, with “(from Envigo, Ind., USA)” for “from Envigo”, “12 h/12 h” for “12/12”, “phase. Every effort was made to minimize suffering of animals. Rats with baseline PWT less than 12 g were not included in the study. Rats were balanced by body weight and by their pre-paclitaxel PWT values. ANOVA found no significant differences between the treatment groups.” for “phase.”

[3] = tested on: chemotherapy-induced peripheral neuropathic pain in rats; assay: Paclitaxel-induced peripheral neuropathic pain, paw withdrawal threshold with von Frey filaments, single administration (Example 5); type: in vivo, Male Sprague Dawley rats
Description: Assessment of neuropathic pain using von Frey filaments was performed. Rats were administered paclitaxel (2 mg/kg) on four alternate days (days 1, 3, 5 and 7). Baseline and post treatment paw withdrawal thresholds (PWT) were evaluated using von Frey filaments (Semmes-Weinstein filaments, Stoelting, Wood Dale, Ill., USA) of varying stiffness (0.4, 0.7, 1.2, 2.0, 3.6, 5.5, 8.5, 10, 15, 26 g). Animals were placed on a perforated metallic platform and allowed to acclimate to their surroundings for a minimum of 15 minutes before each test session. Each filament was presented perpendicular to the plantar surface with sufficient force to cause slight buckling against the paw, and then held until a positive response is noted (paw sharply withdrawn). As described by Chaplan, S. R. et al. “Qualitative Assessment of Tactile Allodynia in the Rat Paw” Journal of Neuroscience Methods, 53 (1994), 55-63 (“Chaplan”), once the threshold was crossed, the 2 responses straddling the threshold are retrospectively designated as the first 2 responses. Four additional responses were measured to stimuli varied sequentially up or down based on the animal's response. The 6 responses in the immediate vicinity of the threshold were used to calculate the 50% g threshold: 50% g threshold=(10^[Xf+k*d])/10000
Xf is the final filament used (in log units). The parameter k is from the Appendix 1 in Chaplan and was determined by the pattern of the von Frey responses (e.g. OXOXOX where ‘O’ indicates no response and ‘X’ denotes a withdrawal). The parameter d is the difference between stimuli which Chaplan used a constant d=0.224. To accommodate for the use of the 10 g and 26 g filaments, the exact difference between stimuli were used.
as §1, with “(from Envigo, Ind., USA)” for “from Envigo”, “12 h/12 h” for “12/12”, “phase. Every effort was made to minimize suffering of animals. Rats with baseline PWT less than 12 g were not included in the study. Rats were balanced by body weight and by their pre-paclitaxel PWT values. ANOVA found no significant differences between the treatment groups.” for “phase.”
Paclitaxel was purchased from Biolyse Pharma (Ontario, Canada) and was injected i.p. (2 mg/kg) on four alternate days (day 1, 3, 5 and 7) for a total of 4 injections at a dose volume of 1 mL/kg.
Rats were subsequently balanced and assigned to treatment groups based on post-paclitaxel PWT values. On test day, PWT was assessed two hours post vehicle or MIN-117 injections and one hour after gabapentin administration.
Gabapentin was purchased from Toronto Research Chemicals and was dissolved in saline and administered orally 60 minutes prior to test at a dose volume of 1 mL/kg. MIN-117 (1, 3 and 10 mg/kg), formulated in 0.5% (w/v) hydroxypropylmethylcellulose (HPMC, Sigma-Aldrich), was administered i.p. at a dose volume of 1 mL/kg. MIN-117 was administered 2 hours prior to test.

[4] = tested on: paclitaxel-induced peripheral neuropathic pain in rats; assay: Prevention of paclitaxel-induced peripheral neuropathic pain, paw withdrawal threshold, chronic administration (Example 6); type: in vivo, Male Sprague Dawley rats; settings: 100 mg/kg orally on day 14, sixty minutes prior to test (acute)
Description: as §1, §2, §3
Prevention study: MIN-117 (10 mg/kg) was formulated in 0.5% (w/v) hydroxypropylmethyl cellulose (HPMC) 8°-120 centipoises in water and was administered i.p once daily for 7 or 14 days at a dose volume of 1 mL/kg. On test days, MIN-117 was administered 2 hours prior to test.
as §4, with “The 6 responses in the immediate vicinity of the threshold were used to calculate the 50% g threshold: 50% g threshold=(10^[Xf+k*d])/10000 Xf is the final filament used (in log units).” left out, “The parameter d is the difference between stimuli which Chaplan used a constant d=0.224. To accommodate for the use of the 10 g and 26 g filaments, the exact difference between stimuli were used.” left out
as §5
Data was analyzed by analysis of variance (ANOVA) followed by post-hoc comparisons where appropriate. […]

[5] = tested on: paclitaxel-induced neuropathy in rats; assay: Other antidepressants in paclitaxel-induced neuropathy, paw withdrawal threshold (Example 7); type: in vivo; settings: 60 min. following administration
Description: Two classes of antidepressants were also evaluated in Paw Withdrawal Threshold (PWT) experiments: duloxetine, a serotonin norepinephrine reuptake inhibitor, and amitriptyline, a tricyclic antidepressant.
On day 22, post-paclitaxel administration (left-most columns in FIG. 16 correspond to rats not administered paclitaxel), rats were administered vehicle (second columns from left in FIG. 16) or duloxetine (orally) and PWT was assessed 60 min. following injection. Data represents mean±s.e.m. (* p<0.05 vs. vehicle/vehicle).
On day 27, post-paclitaxel administration (left-most columns in FIG. 17 correspond to rats not administered paclitaxel), rats were administered vehicle (second columns from left in FIG. 17) or amitriptyline (orally) and PWT was assessed 60 min. following injection. Data represents mean±s.e.m. (* p<0.05 vs. vehicle/vehicle, #p<0.05 vs. paclitaxel/vehicle).

SMILES: Cc1nnc(-c2cc3c(OC[C@@H](O)CN4CCC(c5ccc(Cl)c(Cl)c5)CC4)cccc3o2)o1 [Compound I, (2S)-1-(4-(3,4-dichlorophenyl)piperidin-1-yl)-3-((2-(5-methyl-1,3,4-oxadiazol-2-yl)benzofuran-4-yl)oxy)propan-2-ol]
- PWT compared to vehicle (in words) ([1]; 1 mg/kg i.p. once daily for 2 weeks, 2 hours post dosing): significant increases in pain with threshold
- PWT compared to vehicle (in words) ([1]; 3 mg/kg i.p. once daily for 2 weeks, 2 hours post dosing): significant increases in pain with threshold
- PWT compared to vehicle (in words) ([1]; 10 mg/kg i.p. once daily for 2 weeks, 2 hours post dosing): significant increases in pain with threshold

SMILES: NCC1(CC(=O)O)CCCCC1 [Gabapentin, reference compound]
- Body weight during the study, between groups (in words) [2]: no significant difference between groups
- Paw withdrawal threshold (PWT) compared to vehicle (in words) ([3]; Day 14 after first paclitaxel, administered orally 60 minutes prior to test): significant increase in PWT
- Paw withdrawal threshold (PWT), Day 14 Avg., Mean ([3]; Paclitaxel + Gabapentin (100 mg/kg), oral, 60 minutes prior to test, Count 12): 19.633 g
- Mean Diff. of Day 14 Avg. PWT, Fisher's PLSD ([3]; Paclitaxel + Vehicle, Paclitaxel + Gabapentin (100 mg/kg)): −15.759
- PWT compared to vehicle (in words) [4]: significant increase in PWT; also recorded: significantly higher PWT
- PWT compared to vehicle (in words) ([1]; 100 mg/kg orally once daily for 2 weeks (chronic), 1 hour post dosing): significant increase in PWT; also recorded: significantly higher PWT
- PWT after cessation of treatment (in words) [1]: returned to vehicle levels
- PWT after cessation of treatment (in words) ([1]; listed as gabapentin): no significant effect on PWT

SMILES: CN(C)CCC=C1c2ccccc2CCc2ccccc21 [amitriptyline]
- Effect on PWT in paclitaxel-treated rats (in words) ([5]; 3 mg/kg orally, day 27 post-paclitaxel): not found to reverse paclitaxel-induced neuropathy
- Effect on PWT in paclitaxel-treated rats (in words) ([5]; 10 mg/kg orally, day 27 post-paclitaxel): not found to reverse paclitaxel-induced neuropathy
- Effect on PWT in paclitaxel-treated rats (in words) ([5]; 30 mg/kg orally (highest dose tested), day 27 post-paclitaxel): only partially reversed

SMILES: CNCC[C@H](Oc1cccc2ccccc12)c1cccs1 [duloxetine]
- Effect on PWT in paclitaxel-treated rats (in words) ([5]; 3 mg/kg orally, day 22 post-paclitaxel): no effect on PWT
- Effect on PWT in paclitaxel-treated rats (in words) ([5]; 10 mg/kg orally, day 22 post-paclitaxel): no effect on PWT
- Effect on PWT in paclitaxel-treated rats (in words) ([5]; 30 mg/kg orally, day 22 post-paclitaxel): no effect on PWT
